Key:
[1] = Selectivity ratio for human RPMI8226 cells over human HSF cells; format: ADME, cell-based, RPMI-8226; details: RPMI8226 cells versus HSF cells
[2] = Induction of apoptosis in human HSF cells at 50 ug/ml after 24 hrs by propidium iodide/Hoechst 33342 staining-based confocal microscopy (reference value: 2%); format: cell-based
[3] = Cytotoxicity against human HSF cells at 50 ug/ml after 72 hrs by BrdU incorporation assay relative to control; format: cell-based; details: read-out: GI
T47D [4] = experiment: Cytotoxicity against human T47D cells at 50 ug/ml after 48 hrs by BrdU incorporation assay relative to control; format: functional; details: read-out: GI
HeLa [5] = experiment: Induction of necrosis in human HeLa cells at 50 ug/ml after 48 hrs by propidium iodide/Hoechst 33342 staining-based confocal microscopy (reference value: 10%); format: functional
[6] = Induction of apoptosis in human HSF cells at 50 ug/ml after 48 hrs by propidium iodide/Hoechst 33342 staining-based confocal microscopy (reference value: 5%); format: cell-based
HeLa [7] = experiment: Cytotoxicity against human HeLa cells at 50 ug/ml after 48 hrs by BrdU incorporation assay relative to control; format: functional; details: read-out: GI
T47D [8] = experiment: Induction of apoptosis in human T47D cells at 50 ug/ml after 48 hrs by propidium iodide/Hoechst 33342 staining-based confocal microscopy (reference value: 2%); format: functional
T47D [9] = experiment: Induction of apoptosis in human T47D cells at 50 ug/ml after 24 hrs by propidium iodide/Hoechst 33342 staining-based confocal microscopy (reference value: 2%); format: functional
[10] = Induction of necrosis in human HSF cells at 50 ug/ml after 48 hrs by propidium iodide/Hoechst 33342 staining-based confocal microscopy (reference value: 4%); format: cell-based
[11] = Cytotoxicity against human MM1R cells at 50 ug/ml after 72 hrs by BrdU incorporation assay relative to control; format: functional; details: MM.1R, read-out: GI
HeLa [12] = experiment: Induction of necrosis in human HeLa cells at 50 ug/ml after 24 hrs by propidium iodide/Hoechst 33342 staining-based confocal microscopy (reference value: 5%); format: functional
[13] = Cytotoxicity against human HSF cells at 50 ug/ml after 24 hrs by BrdU incorporation assay relative to control; format: cell-based; details: read-out: GI
[14] = Cytotoxicity against human MM1R cells at 50 ug/ml after 24 hrs by BrdU incorporation assay relative to control; format: functional; details: MM.1R, read-out: GI
[15] = Induction of necrosis in human HSF cells at 50 ug/ml after 72 hrs by propidium iodide/Hoechst 33342 staining-based confocal microscopy (reference value: 5%); format: cell-based
T47D [16] = experiment: Cytotoxicity against human T47D cells at 50 ug/ml after 72 hrs by BrdU incorporation assay relative to control; format: functional; details: read-out: GI
[17] = Cytotoxicity against human MM1S cells at 50 ug/ml after 24 hrs by BrdU incorporation assay relative to control; format: functional; details: MM1.S, read-out: GI
[18] = Cytotoxicity against human MM1S cells at 50 ug/ml after 48 hrs by BrdU incorporation assay relative to control; format: functional; details: MM1.S, read-out: GI
HeLa [19] = experiment: Induction of necrosis in human HeLa cells at 50 ug/ml after 72 hrs by propidium iodide/Hoechst 33342 staining-based confocal microscopy (reference value: 10%); format: functional
HeLa [20] = experiment: Induction of apoptosis in human HeLa cells at 50 ug/ml after 48 hrs by propidium iodide/Hoechst 33342 staining-based confocal microscopy (reference value: 5%); format: functional
HeLa [21] = experiment: Cytotoxicity against human HeLa cells at 50 ug/ml after 72 hrs by BrdU incorporation assay relative to control; format: functional; details: read-out: GI
[22] = Cytotoxicity against human HSF cells at 50 ug/ml after 48 hrs by BrdU incorporation assay relative to control; format: cell-based; details: read-out: GI
[23] = Induction of apoptosis in human HSF cells at 50 ug/ml after 72 hrs by propidium iodide/Hoechst 33342 staining-based confocal microscopy (reference value: 5%); format: cell-based
T47D [24] = experiment: Cytotoxicity against human T47D cells at 50 ug/ml after 24 hrs by BrdU incorporation assay relative to control; format: functional; details: read-out: GI
HeLa [25] = experiment: Induction of apoptosis in human HeLa cells at 50 ug/ml after 72 hrs by propidium iodide/Hoechst 33342 staining-based confocal microscopy (reference value: 5%); format: functional
[26] = Cytotoxicity against human MM1S cells at 50 ug/ml after 72 hrs by BrdU incorporation assay relative to control; format: functional; details: MM1.S, read-out: GI
[27] = Cytotoxicity against human MM1R cells at 50 ug/ml after 48 hrs by BrdU incorporation assay relative to control; format: functional; details: MM.1R, read-out: GI
T47D [28] = experiment: Induction of necrosis in human T47D cells at 50 ug/ml after 72 hrs by propidium iodide/Hoechst 33342 staining-based confocal microscopy (reference value: 10%); format: functional
HeLa [29] = experiment: Induction of apoptosis in human HeLa cells at 50 ug/ml after 24 hrs by propidium iodide/Hoechst 33342 staining-based confocal microscopy (reference value: 2%); format: functional
T47D [30] = experiment: Induction of necrosis in human T47D cells at 50 ug/ml after 24 hrs by propidium iodide/Hoechst 33342 staining-based confocal microscopy (reference value: 5%); format: functional
T47D [31] = experiment: Induction of apoptosis in human T47D cells at 50 ug/ml after 72 hrs by propidium iodide/Hoechst 33342 staining-based confocal microscopy (reference value: 5%); format: functional
HeLa [32] = experiment: Cytotoxicity against human HeLa cells at 50 ug/ml after 24 hrs by BrdU incorporation assay relative to control; format: functional; details: read-out: GI
[33] = Induction of necrosis in human HSF cells at 50 ug/ml after 24 hrs by propidium iodide/Hoechst 33342 staining-based confocal microscopy (reference value: 2%); format: cell-based
T47D [34] = experiment: Induction of necrosis in human T47D cells at 50 ug/ml after 48 hrs by propidium iodide/Hoechst 33342 staining-based confocal microscopy (reference value: 8%); format: functional
[35] = Toxicity in ip dosed albino-Swiss mouse; format: organism-based; details: in vivo

SMILES | inhibition at 72 h, 50 ug/ml [3] | inhibition of growth at 50 µg/mL (T47D [4]) | inhibition of growth at 50 µg/mL (HeLa [7]) | inhibition of growth at 50 µg/mL [11] | inhibition at 24 h, 50 ug/ml [13] | inhibition of growth at 50 µg/mL [14] | inhibition of growth at 50 µg/mL (T47D [16]) | inhibition of growth at 50 µg/mL [17] | inhibition of growth at 50 µg/mL [18] | inhibition of growth at 50 µg/mL (HeLa [21]) | inhibition at 48 h, 50 ug/ml [22] | inhibition of growth at 50 µg/mL (T47D [24]) | inhibition of growth at 50 µg/mL [26] | inhibition of growth at 50 µg/mL [27] | inhibition of growth at 50 µg/mL (HeLa [32]) | also measured
O=c1c(-c2ccccc2)nnc2n1CCN2c1cccc(Cl)c1 | – | – | – | – | – | – | – | – | – | – | – | – | – | – | – | selectivity ratio [1]: 1.5
CCOC(=O)Cc1nnc2n(c1=O)CCN2c1ccc(Cl)c(Cl)c1 | 70% | 40% | 45% | 90% | 50% | 65% | 50% | 40% | 65% | 80% | 60% | 25% | 80% | 80% | 45% | Activity [2]: 10%; Activity (HeLa [5]): 45%; Activity [6]: 10%; Activity (T47D [8]): 10%; Activity (T47D [9]): 15%; Activity [10]: 60%; Activity (HeLa [12]): 45%; Activity [15]: 70%; Activity (HeLa [19]): 80%; Activity (HeLa [20]): 10%; Activity [23]: 12%; Activity (HeLa [25]): 15%; Activity (T47D [28]): 50%; Activity (HeLa [29]): 10%; Activity (T47D [30]): 25%; Activity (T47D [31]): 20%; Activity [33]: 50%; Activity (T47D [34]): 45%
CCOC(=O)Cc1nnc2n(c1=O)CCN2c1cccc(Cl)c1 | 10% | 55% | 50% | 90% | 10% | 80% | 55% | 55% | 60% | 50% | 10% | 55% | 80% | 85% | 10% | Activity [2]: 5%; Activity (HeLa [5]): 50%; Activity [6]: 5%; Activity (T47D [8]): 20%; Activity (T47D [9]): 10%; Activity [10]: 10%; Activity (HeLa [12]): 10%; Activity [15]: 10%; Activity (HeLa [19]): 50%; Activity (HeLa [20]): 15%; Activity [23]: 10%; Activity (HeLa [25]): 15%; Activity (T47D [28]): 55%; Activity (HeLa [29]): 10%; Activity (T47D [30]): 25%; Activity (T47D [31]): 20%; Activity [33]: 10%; Activity (T47D [34]): 50%
CCOC(=O)Cc1nnc2n(c1=O)CCN2c1ccc(C)cc1 | 80% | 75% | 70% | 75% | 50% | 60% | 80% | 50% | 60% | 70% | 75% | 25% | 70% | 70% | 20% | –
CCOC(=O)Cc1nnc2n(c1=O)CCN2c1ccccc1 | 50% | 80% | 75% | 90% | 25% | 80% | 85% | 25% | 30% | 75% | 50% | 40% | 80% | 85% | 20% | Activity [2]: 5%; Activity (HeLa [5]): 75%; Activity [6]: 5%; Activity (T47D [8]): 10%; Activity (T47D [9]): 5%; Activity [10]: 50%; Activity (HeLa [12]): 20%; Activity [15]: 50%; Activity (HeLa [19]): 80%; Activity (HeLa [20]): 15%; Activity [23]: 8%; Activity (HeLa [25]): 15%; Activity (T47D [28]): 85%; Activity (HeLa [29]): 10%; Activity (T47D [30]): 40%; Activity (T47D [31]): 10%; Activity [33]: 25%; Activity (T47D [34]): 80%
CCOC(=O)C/C(=N\N=C1/NCCN1c1ccc(Cl)cc1)C(=O)OCC | 90% | 85% | 30% | 90% | 70% | 65% | 90% | 65% | 75% | 55% | 90% | 80% | 90% | 80% | 10% | –
O=c1c(-c2ccccc2)nnc2n1CCN2c1ccc(Cl)cc1 | – | – | – | – | – | – | – | – | – | – | – | – | – | – | – | LD50 [35]: > 2000 mg/kg
CCOC(=O)Cc1nnc2n(c1=O)CCN2c1ccccc1OC | 80% | 35% | 45% | 95% | 50% | 75% | 40% | 45% | 55% | 50% | 80% | 30% | 85% | 80% | 10% | –
CCOC(=O)C/C(=N\N=C1/NCCN1c1cccc(Cl)c1)C(=O)OCC | 90% | 85% | 25% | 80% | 70% | 70% | 90% | 40% | 65% | 45% | 90% | 80% | 80% | 75% | 5% | –
CCOC(=O)C/C(=N\N=C1/NCCN1c1ccc(C)cc1)C(=O)OCC | 80% | 75% | 45% | 95% | 70% | 75% | 80% | 55% | 70% | 50% | 80% | 50% | 85% | 90% | 5% | –
CCOC(=O)C/C(=N\N=C1/NCCN1c1ccc(Cl)c(Cl)c1)C(=O)OCC | 90% | 95% | 50% | 80% | 70% | 70% | 100% | 70% | 80% | 60% | 90% | 80% | 90% | 80% | 50% | –

Reference: ChEMBL document CHEMBL3091361, “Synthesis, structure elucidation and in vitro anticancer activities of novel derivatives of diethyl (2E)-2-[(2E)-(1-arylimidazolidin-2-ylidene)hydrazono]succinate and ethyl (4-oxo-8-aryl-4,6,7,8-tetrahydroimidazo[2,1-c][1,2,4]triazin-3-yl)acetate” (Bioorg Med Chem, 2013)
